The target in the first assay is T1, N-type Ca^2+ Channel (Homo sapiens, UniProt Q00975).
T1 construct: host or cells: IMR-32 cells differentiated with dibutyryl cAMP and bromodeoxyuridine
T1 sequence (Q00975 whole entry): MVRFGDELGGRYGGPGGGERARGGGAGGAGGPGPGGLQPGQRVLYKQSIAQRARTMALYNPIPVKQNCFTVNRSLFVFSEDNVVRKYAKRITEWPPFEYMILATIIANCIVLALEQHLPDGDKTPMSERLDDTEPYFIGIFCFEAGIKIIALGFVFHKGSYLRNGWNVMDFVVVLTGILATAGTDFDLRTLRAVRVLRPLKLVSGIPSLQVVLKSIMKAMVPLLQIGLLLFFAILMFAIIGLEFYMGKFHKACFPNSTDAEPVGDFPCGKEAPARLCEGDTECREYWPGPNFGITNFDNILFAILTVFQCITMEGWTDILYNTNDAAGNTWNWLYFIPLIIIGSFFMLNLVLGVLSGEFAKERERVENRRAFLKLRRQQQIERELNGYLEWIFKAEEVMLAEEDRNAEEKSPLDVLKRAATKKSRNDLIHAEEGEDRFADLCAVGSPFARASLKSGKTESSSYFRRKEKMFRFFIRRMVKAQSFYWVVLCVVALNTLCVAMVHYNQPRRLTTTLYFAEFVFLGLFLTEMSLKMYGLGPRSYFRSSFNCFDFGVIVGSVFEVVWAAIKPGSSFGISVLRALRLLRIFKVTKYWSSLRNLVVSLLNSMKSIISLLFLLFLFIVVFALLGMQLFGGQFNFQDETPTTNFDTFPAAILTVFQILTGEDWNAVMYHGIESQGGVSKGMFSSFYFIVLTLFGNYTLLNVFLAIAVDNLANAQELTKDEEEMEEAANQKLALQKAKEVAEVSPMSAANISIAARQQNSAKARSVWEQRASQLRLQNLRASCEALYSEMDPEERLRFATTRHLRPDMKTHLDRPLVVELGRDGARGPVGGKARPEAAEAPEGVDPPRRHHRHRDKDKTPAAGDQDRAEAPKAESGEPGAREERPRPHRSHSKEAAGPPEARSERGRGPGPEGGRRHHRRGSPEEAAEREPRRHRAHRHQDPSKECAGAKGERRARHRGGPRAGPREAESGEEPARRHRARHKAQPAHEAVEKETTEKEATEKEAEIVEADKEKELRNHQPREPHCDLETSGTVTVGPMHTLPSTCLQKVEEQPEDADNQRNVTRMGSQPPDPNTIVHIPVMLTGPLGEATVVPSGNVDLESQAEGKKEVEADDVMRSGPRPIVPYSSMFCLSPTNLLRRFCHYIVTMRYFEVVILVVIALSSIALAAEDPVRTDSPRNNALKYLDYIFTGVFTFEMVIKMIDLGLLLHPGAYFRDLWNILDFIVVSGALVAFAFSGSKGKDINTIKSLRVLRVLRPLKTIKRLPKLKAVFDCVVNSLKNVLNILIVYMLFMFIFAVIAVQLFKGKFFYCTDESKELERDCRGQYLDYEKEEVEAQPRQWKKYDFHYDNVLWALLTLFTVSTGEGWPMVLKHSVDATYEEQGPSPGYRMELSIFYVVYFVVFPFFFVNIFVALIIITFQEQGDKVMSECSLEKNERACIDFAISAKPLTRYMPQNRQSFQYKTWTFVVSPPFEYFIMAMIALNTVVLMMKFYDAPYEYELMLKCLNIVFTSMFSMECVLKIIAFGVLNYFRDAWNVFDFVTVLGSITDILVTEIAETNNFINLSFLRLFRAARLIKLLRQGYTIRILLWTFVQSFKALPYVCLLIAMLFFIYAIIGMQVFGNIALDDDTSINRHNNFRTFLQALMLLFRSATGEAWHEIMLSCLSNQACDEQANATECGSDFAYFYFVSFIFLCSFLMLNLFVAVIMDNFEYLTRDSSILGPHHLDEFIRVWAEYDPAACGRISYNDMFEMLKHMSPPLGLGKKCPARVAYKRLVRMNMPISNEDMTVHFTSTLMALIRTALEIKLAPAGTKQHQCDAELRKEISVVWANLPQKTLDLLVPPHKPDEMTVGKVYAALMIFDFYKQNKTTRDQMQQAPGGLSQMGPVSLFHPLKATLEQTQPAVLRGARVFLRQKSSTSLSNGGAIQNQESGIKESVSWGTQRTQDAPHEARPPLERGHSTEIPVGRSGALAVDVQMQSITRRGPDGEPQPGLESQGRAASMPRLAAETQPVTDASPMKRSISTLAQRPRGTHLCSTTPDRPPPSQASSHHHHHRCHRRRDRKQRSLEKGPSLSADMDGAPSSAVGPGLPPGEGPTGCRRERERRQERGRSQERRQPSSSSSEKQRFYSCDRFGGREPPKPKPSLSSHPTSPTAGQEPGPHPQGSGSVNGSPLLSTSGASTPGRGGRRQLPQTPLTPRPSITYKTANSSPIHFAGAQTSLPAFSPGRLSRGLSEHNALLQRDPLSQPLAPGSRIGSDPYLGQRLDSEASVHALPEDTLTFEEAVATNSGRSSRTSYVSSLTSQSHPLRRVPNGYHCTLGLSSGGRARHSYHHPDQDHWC
T1 sequence (P54284 whole entry partner): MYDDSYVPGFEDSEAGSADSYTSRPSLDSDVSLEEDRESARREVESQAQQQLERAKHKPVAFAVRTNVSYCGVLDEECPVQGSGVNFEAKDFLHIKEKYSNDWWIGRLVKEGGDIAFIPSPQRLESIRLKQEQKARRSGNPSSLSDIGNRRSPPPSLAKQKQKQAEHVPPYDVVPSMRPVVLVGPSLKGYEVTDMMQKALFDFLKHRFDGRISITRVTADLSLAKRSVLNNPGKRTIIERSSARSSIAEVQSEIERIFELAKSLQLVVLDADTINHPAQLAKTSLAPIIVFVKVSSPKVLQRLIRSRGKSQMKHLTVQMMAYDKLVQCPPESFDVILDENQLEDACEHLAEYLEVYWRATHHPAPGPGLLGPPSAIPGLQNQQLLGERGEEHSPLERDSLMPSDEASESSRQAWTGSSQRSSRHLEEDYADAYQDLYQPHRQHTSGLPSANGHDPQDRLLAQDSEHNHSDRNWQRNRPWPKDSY
T1 sequence (P54289 25-946 partner limits assumed): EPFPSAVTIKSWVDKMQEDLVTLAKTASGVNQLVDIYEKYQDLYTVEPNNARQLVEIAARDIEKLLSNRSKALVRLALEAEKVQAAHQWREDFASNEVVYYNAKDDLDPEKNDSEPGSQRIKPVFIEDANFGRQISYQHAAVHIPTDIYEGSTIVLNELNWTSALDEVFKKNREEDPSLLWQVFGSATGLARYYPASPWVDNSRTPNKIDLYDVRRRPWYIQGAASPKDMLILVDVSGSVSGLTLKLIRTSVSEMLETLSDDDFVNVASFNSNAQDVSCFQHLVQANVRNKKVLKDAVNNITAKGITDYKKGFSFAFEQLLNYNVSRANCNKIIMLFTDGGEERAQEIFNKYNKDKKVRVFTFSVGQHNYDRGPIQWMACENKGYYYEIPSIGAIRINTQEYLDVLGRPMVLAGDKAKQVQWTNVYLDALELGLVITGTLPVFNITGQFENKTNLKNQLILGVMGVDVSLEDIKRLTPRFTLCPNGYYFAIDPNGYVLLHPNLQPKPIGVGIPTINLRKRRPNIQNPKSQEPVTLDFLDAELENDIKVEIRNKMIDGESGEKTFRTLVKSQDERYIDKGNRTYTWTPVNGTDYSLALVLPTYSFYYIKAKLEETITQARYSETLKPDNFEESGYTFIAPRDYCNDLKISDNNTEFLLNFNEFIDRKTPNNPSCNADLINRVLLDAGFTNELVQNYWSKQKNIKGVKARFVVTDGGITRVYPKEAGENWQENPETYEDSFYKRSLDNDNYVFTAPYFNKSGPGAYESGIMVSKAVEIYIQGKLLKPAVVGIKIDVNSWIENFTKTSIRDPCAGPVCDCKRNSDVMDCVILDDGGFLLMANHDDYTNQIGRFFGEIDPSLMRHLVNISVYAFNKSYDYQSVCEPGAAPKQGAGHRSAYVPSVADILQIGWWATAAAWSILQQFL
T1 sequence (P54289 947-1103 partner limits assumed): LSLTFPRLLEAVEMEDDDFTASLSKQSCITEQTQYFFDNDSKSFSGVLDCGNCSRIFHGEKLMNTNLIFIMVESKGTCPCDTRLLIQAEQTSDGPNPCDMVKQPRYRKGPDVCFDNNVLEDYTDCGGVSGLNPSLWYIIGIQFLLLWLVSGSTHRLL
Put plainly: Measurement of N-type Ca2+ channel blocking potencies in IMR-32 cells using the fluorescent Ca2+ indicator Indo-1. The settings on record: 1 μM; IMR-32 cells, 5 μM nitrendipine. Type of assay: cell-based. The method, then: Measurement of N-type Ca^2+ Channel Blocking Potencies of Compounds in IMR-32 Cells Using the Fluorescent Ca^2 + Indicator Indo-1
IMR-32 cells are a human tumoral cell line of neural origin. […] Calcium flux into these cells may be induced by stimulation with elevated potassium concentrations. The L-channel component of calcium flux may be blocked by adding 5 μM nitrendipine. The remaining component of calcium entry into the IMR-32 cells is due to calcium flux through N-type calcium channels. Intracellular calcium concentrations are measured using the fluorescent calcium indicator Indo-1. The effect of drug concentration on calcium uptake is studied.
The IMR-32 cell line was obtained from the American Type Culture Collection (Rockville, Md.). Cells were grown in Eagle's Minimum Essential Medium with Earle's salts supplemented with 10% fetal bovine serum, 2 mM L-Gln and antibiotic/antimycotic mixture (Gibco). At approximately 80% confluency, differentiation was induced by the addition of 1 mM dibutyryl cAMP and 2.5 μM bromodeoxyuridine to the medium. After 7 to 13 days of differentiation, cells were detached using 0.5 mM EDTA and loaded with 5 μM Indo-1 acetoxymethyl ester (Molecular Probes, Eugene, Oreg.) at 30° C. for 45 minutes. Loaded cells were washed twice, resuspended (~10^7 cells/mL) in assay buffer (10 mM HEPES/Tris pH 7.4 in Hank's Balanced Salt Solution without bicarbonate or phenol red containing 0.5% bovine serum albumin) and kept on ice until use. Fluorescence measurements were carried out in a Photon Technology International (PTI, South Brunswick, N.J.) Model RF-F3004 spectrofluorometer with dual emission monochromators using excitation at 350 nm and emission at 400 and 490 nm. The instrument was equipped with a thermostated cuvette holder with stirring capabilities as well as with a computer-controlled pump which allowed for reagent addition during measurement. Instrument control and data collection was done by PTI's OSCAR software running on an IBM compatible computer. Different concentrations of the test compounds (60 μL in dimethyl sulfoxide) were added to 5.94 mL of assay buffer containing approximately 3×10^6 loaded cells, and 5 μM nitrendipine (in 30 μL EtOH) to block L-type Ca^2+ channels. Samples were incubated for 10 minutes at 30° C. and then aliquoted into three 10×10 mm disposable acrylic cuvettes. Emission signals at 400 and 490 nm were acquired from each cuvette at 30° C. for 50 seconds. At 20 seconds after the start of reading, cells were depolarized by the addition of 160 μL of stimulation solution (1 M KCl, 68 mM CaCl2) to the cuvette via the computer-controlled pump. Ratio of dual emission signals (400 nm/ 490 nm), which is proportional to intracellular Ca^2+ concentration, was plotted against time, and the difference between maximal response after stimulation and basal value (before stimulation) was determined. Values obtained in this way were plotted as a function of drug concentration. IC50 values of test compounds were calculated by fitting a four-parameter logistic function to the data using the least squares method.
For the compound `CC(C)C[C@@H](C(=O)N[C@@H](Cc1ccc(OCc2ccccc2)cc1)C(=O)NC(C)(C)C)N(C)C1CCC(C(C)(C)C)CC1` (relative stereo) [Example 38, [S-(R*,R*)]-2-[(4-tert-Butyl-cyclohexyl)-methyl-amino]-4-methyl-pentanoic acid [2-(4-benzyloxy-phenyl)-1-tert-butylcarbamoyl-ethyl]-amide], the “IMR 32 % of Blockade @ 1 μM” value was 23%.

On to `CC(C)CCN(C)[C@@H](CC(C)C)C(=O)N[C@@H](Cc1ccc(OCc2ccccc2)cc1)C(=O)N1CCN(C)CC1` (relative stereo) [Example 12, [S-(R*,R*)]-4-Methyl-2-[methyl-(3-methyl-butyl)-amino]-pentanoic acid [1-(4-benzyloxy-benzyl)-2-(4-methyl-piperazin-1-yl)-2-oxo-ethyl]-amide], for which the “IMR 32 % of Blockade @ 1 μM” value worked out at 39%.

Turning to `CC(C)C[C@@H](C(=O)N[C@@H](Cc1ccc(OCc2ccccc2)cc1)C(=O)N1CCCCC1)N(C)C1CCCCC1` (relative stereo) [Example 20, [S-(R*,R*)]-2-(Cyclohexyl-methyl-amino)-4-methyl-pentanoic acid [2-(4-benzyloxy-phenyl)-1-(piperidine-1-carbonyl)-ethyl]-amide], the “IMR 32 % of Blockade @ 1 μM” value was 65%.

Still in this assay, the particulars now being: 10 μM; IMR-32 cells, 5 μM nitrendipine.
For `CC(C)CCN(C)[C@@H](CC(C)C)C(=O)N[C@@H](Cc1ccc(OCc2ccccc2)cc1)C(=O)N1CCN(C)CC1` (relative stereo) [Example 12, [S-(R*,R*)]-4-Methyl-2-[methyl-(3-methyl-butyl)-amino]-pentanoic acid [1-(4-benzyloxy-benzyl)-2-(4-methyl-piperazin-1-yl)-2-oxo-ethyl]-amide], the “IMR 32 % of Blockade @ 10 μM” value was determined as 88%.

As to `CC(C)C[C@@H](C(=O)N[C@@H](Cc1ccc(OCc2ccccc2)cc1)C(=O)N1CCCCC1)N(C)C1CCCCC1` (relative stereo) [Example 20, [S-(R*,R*)]-2-(Cyclohexyl-methyl-amino)-4-methyl-pentanoic acid [2-(4-benzyloxy-phenyl)-1-(piperidine-1-carbonyl)-ethyl]-amide], the “IMR 32 % of Blockade @ 10 μM” value turned out to be 87%.

Still in this assay, the particulars now being: IMR-32 cells, 5 μM nitrendipine; Examples 116-140; read-out: IMR 32% of Blockade @.
Turning to `CC(C)CC(C(=O)NC(Cc1ccc(OCc2ccccc2)cc1)C(=O)NCCNCCO)N(C)C` (stereo not drawn) [Example 140, [S-(R*,R*)]-2-Dimethylamino-4-methyl-pentanoic acid {2-(4-benzyloxy-phenyl)-1-[2-(2-hydroxy-ethylamino)-ethylcarbamoyl]-ethyl}-amide], the IC50 was 5.1 µM.

Regarding “[S-(R*,R*)]-4-Methyl-2-(tetrahydropyran-4-yl-amino)-pentanoic acid [2-(4-benzyloxy-phenyl)-1-(-(2-pyridin-2-yl-ethylcarbamoyl)-ethyl]-amide [Example 128]”, the IC50 amounted to 3.9 µM.

With `CCC(COC)NC(=O)[C@H](Cc1ccc(OCc2ccccc2)cc1)NC(=O)[C@H](CC(C)C)N(C)C` (relative stereo) [Example 138, [S-(R*,R*)]-2-Dimethylamino-4-methyl-pentanoic acid [2-(4-benzyloxy-phenyl)-1-(1-methoxymethyl-propylcarbamoyl)-ethyl]-amide], the IC50 amounted to 3 µM.

In the case of `CC(C)CCN(C)[C@@H](CC(C)C)C(=O)N[C@@H](Cc1ccc(OCc2ccccc2)cc1)C(=O)NCCCN1CCCC1=O` (relative stereo) [Example 118, [S-(R*,R*)]-4-Methyl-2-[methyl-(3-methyl-butyl)-amino]-pentanoic acid {2-(4-benzyloxy-phenyl)-1-[3-(2-oxo-pyrrolidin-1-yl)-propylcarbamoyl]-ethyl}-amide], the IC50 is 1.9 µM.

In the case of “[S-(R*,R*)]-4-Methyl-2-(tetrahydropyran-4-yl-amino)-pentanoic acid [2-(4-benzyloxy-phenyl)-1-(4-hydroxy-piperinylcarbamoyl]-amide [Example 131]”, the IC50 is 10 µM.

The assay is the same for the next values; noted with them: IMR-32 cells, K+ depolarization, 5 μM nitrendipine to block L-type channels; read-out: IMR 32 IC50.
For `CC(C)C[C@@H](C(=O)N[C@@H](Cc1ccc(OCc2ccccc2)cc1)C(=O)N1CCN(Cc2ccccc2)CC1)N(C)CC1CCCCC1` (relative stereo) [Example 28, [S-(R*,R*)]-2-(Cyclohexylmethyl-methyl-amino)-4-methyl-pentanoic acid [1-(4-benzyloxy-benzyl)-2-(4-benzyl-piperazin-1-yl)-2-oxo-ethyl]-amide], the IC50 came to 0.5 µM.

As to `CC(C)CCN(C)CC(=O)NC(Cc1ccc(OCc2ccccc2)cc1)C(=O)NC(C)(C)C` (stereo not drawn) [Example 102, [S-(R*,R*)]-3-(4-Benzyloxy-phenyl)-N-tert-butyl-2-{2-[methyl-(3-methyl-butyl)-amino]-acetylamino}-propionamide], the IC50 was determined as 1.6 µM.

On to `CC(C)C[C@@H](C(=O)N[C@@H](Cc1ccc(OCc2ccccc2)cc1)C(=O)NC(C)(C)C)N(C)C1CCC(C)CC1` (relative stereo) [Example 39, [S-(R*,R*)]-4-Methyl-2-[methyl-(4-methyl-cyclohexyl)-amino]-pentanoic acid [2-(4-benzyloxy-phenyl)-1-tert-butylcarbamoyl-ethyl]-amide], for which the IC50 was 0.39 µM.

As for `CC(C)CC(NC1CCOCC1)C(=O)NC(Cc1ccc(OCc2ccccc2)cc1)C(=O)NC(C)(C)C` (stereo not drawn) [Example 78, [S-(R*,R*)]-4-Methyl-2-(tetrahydro-pyran-4-ylamino)-pentanoic acid [2-(4-benzyloxy-phenyl)-1-tert-butylcarbamoyl-ethyl]-amide], the IC50 turned out to be 1.6 µM.

Take `CC(C)C[C@@H](C(=O)N[C@@H](Cc1ccc(OCc2ccccc2)cc1)C(=O)NC(C)(C)C)N(C)Cc1ccc(Br)cc1` (relative stereo) [Example 81, [S-(R*,R*)]-2-[(4-Bromo-benzyl)-methyl-amino]4-methyl-pentanoic acid [2-(4-benzyloxy-phenyl)-1-tert-butylcarbamoyl-ethyl]-amide]: the IC50 stood at 0.16 µM.

In the case of `CC(C)CC(C(=O)NC(Cc1ccc(OCc2ccccc2)cc1)C(=O)N1CCN(C)CC1)N(C)CC1CCCCC1` (stereo not drawn) [Example 30, [S-(R*,R*)]-2-(Cyclohexylmethyl-methyl-amino)-4-methyl-pentanoic acid [1-(4-benzyloxy-benzyl)-2-(4-methyl-piperazin-1-yl)-2-oxo-ethyl]-amide], the IC50 amounted to 1.2 µM.

In the case of `CC(C)C[C@@H](C(=O)N[C@@H](Cc1ccc(OCc2ccccc2)cc1)C(=O)NC1CCN(Cc2ccccc2)CC1)N(C)CC1CCCCC1` (relative stereo) [Example 29, [S-(R*,R*)]-2-(Cyclohexylmethyl-methyl-amino)-4-methyl-pentanoic acid [2-(4-benzyloxy-phenyl)-1-(1-benzyl-piperidin-4-ylcarbamoyl)-ethyl]-amide], the IC50 came out at 0.6 µM.

For the compound `CC(C)CCNC(CC(C)C)C(=O)NC(Cc1ccc(OCc2ccccc2)cc1)C(=O)OC(C)(C)C` (stereo not drawn) [Example 95, [S-(R*,R*)]-3-(4-Benzyloxy-phenyl)2-[4-methyl-2-(3-methyl-butylamino)-pentanoylamino]-propionic acid tert-butyl ester], the IC50 stood at 0.46 µM.

In the case of `CC(C)C[C@@H](C(=O)N[C@@H](Cc1ccc(OCc2ccccc2)cc1)C(=O)NC1CCN(Cc2ccccc2)CC1)N(C)Cc1ccc(C(C)(C)C)cc1` (relative stereo) [Example 17, S-(R*,R*)]-2-[(4-tert-Butyl-benzyl)-methyl-amino]-4-methyl-pentanoic acid [2-(4-benzyloxy-phenyl)-1-(1-benzyl-piperidin-4-yl-carbamoyl)-ethyl]-amide], the IC50 was 0.44 µM.

For `CC(C)CC(C(=O)NC(Cc1ccc(NCc2ccccc2)cc1)C(=O)NC(C)(C)C)N(C)Cc1ccc(C(C)(C)C)cc1` (stereo not drawn) [Example 55, [S-(R*,R*)]-2-[(4-tert-Butyl-benzyl)-methyl-amino]-4-methyl-pentanoic acid [2-(4-benzylamino-phenyl)-1-tert-butylcarbamoyl-ethyl]-amide], the IC50 came out at 0.1 µM.

On to `CC(C)CC(C(=O)NC(Cc1ccc(OCc2ccccc2)cc1)C(=O)N1CCCCC1)N1CCOCC1` (stereo not drawn) [Example 70, [S-(R*,R*)]-4-Methyl-2-morpholin-4-yl-pentanoic acid [1-(4-benzyloxy-benzyl)-2-oxo-2-piperidin-1-yl-ethyl]-amide], for which the IC50 worked out at 2.3 µM.

Consider `CC(C)C[C@H](NC1CCOCC1)C(=O)N[C@@H](Cc1ccc(OCc2ccccc2)cc1)C(=O)NCCNCc1ccccc1` (relative stereo) [Example 71, [S-(R*,R*)]-4-Methyl-2-(tetrahydro-pyran-4-ylamino)-pentanoic acid [1-(2-benzylamino-ethylcarbamoyl)-2-(4-benzyloxy-phenyl)-ethyl]-amide], for which the IC50 came to 0.7 µM.

Still in this assay, the particulars now being: read-out: IMR 32% of Blockade @.
`CC(C)C[C@@H](C(=O)N[C@@H](Cc1ccc(OCc2ccccc2)cc1)C(=O)NCCc1ccccn1)N(C)C` (relative stereo) [Example 133, [S-(R*,R*)]-2-Dimethylamino-4-methyl-pentanoic acid [2-(4-benzyloxy-phenyl)-1-(2-(2-aminoethyl)pyridinecarbamoyl)-ethyl]-amide]: the IC50 stood at 5.9 µM.

Source of the values: patent US6117841A, “Substituted peptidylamine calcium channel blockers” (Warner-Lambert Company, priority 1999, dated 2000).
